Measurements reported in patent US20060128699A1, “Novel pharmacophore for the discovery and testing of na,k-atpase inhibitor compositions and methods for their use in treating cardiovascular diseases and conditions” (priority 2002, published 2006).
“And” between values parts separate entries of the source, which are not always exact repeats. Equal entries are not always repeated.

How the values were obtained:
[1] = molecular target: T1, Na, K-ATPase (Ovis aries, UniProt P04074); assay: NKA assay started by addition of ATP; format: biochemical, lamb; conditions: for ratio (digoxin) / IC50: assay started by addition of ATP; for ratio (digoxin): IC50_aver. relative to digoxin
T1 construct: Na, K-ATPase will be purified from the outer medulla of frozen lamb kidney; from tissue; host or cells: outer medulla of frozen lamb kidney
Excerpt: (§1) Briefly Na, K-ATPase will be purified from the outer medulla of frozen lamb kidney. Competitive binding assays will be performed in the presence and absence of varying concentrations of the potential inhibitors. Inhibition studies will be carried out with and without varying concentrations of the potential inhibitors, and the NADPH oxidation rate in the presence and absence of the inhibitors will be determined.

[2] = molecular target: T1, Na, K-ATPase; assay: NKA assay started by addition of KCl; format: biochemical, lamb; conditions: for ratio (digoxin): IC50_aver. relative to digoxin
Excerpt: as §1

[3] = molecular target: rat 1α-subunit of the Na, K-ATPase (Rattus norvegicus, UniProt P06685); conditions: cited from earlier work
[4] = molecular target: human 1α-subunit of the Na, K-ATPase (Homo sapiens, UniProt P05023); conditions: cited from earlier work
[5] = molecular target: sheep 1α-subunit of the Na, K-ATPase, D121N mutant (Ovis aries, UniProt P04074, D126N); conditions: D121N versus wild-type sheep; cited from earlier work
[6] = molecular target: sheep 1α-subunit of the Na, K-ATPase, Q111R and N122D mutant (Ovis aries, UniProt P04074, N127D/Q116R); conditions: Q111R and N122D versus wild-type sheep catalytic subunit; cited from earlier work
[7] = determination 1, read-out: IC50_1
[8] = determination 2, read-out: IC50_2
[9] = determination 3, read-out: IC50_3
[10] = assay started by addition of KCl
[11] = assay started by addition of KCl, average, read-out: IC50_aver.
[12] = assay started by addition of KCl, determination 1, read-out: IC50_1
[13] = assay started by addition of KCl, determination 2, read-out: IC50_2

Compound | ratio (digoxin) [1] | IC50 ([1]; average, read-out: IC50_aver.) | IC50 [1, 7] [µM] | IC50 [1, 8] [µM] | ATPase inhibition (in words) [1] | IC50 [1, 9] [µM] | ratio (digoxin) [2, 10] | other results
Oc1cc(O)c2c(c1)O[C@H](c1ccc(O)c(O)c1)[C@@H](O)C2 [Compound 9, (+)-Catechin Hydrate] | 664 | 270 µM | 287 | 253 |  |  |  | 
O=C1C=CC2C(=C1[N+](=O)[O-])Oc1c(ccc(O)c1[N+](=O)[O-])C2c1ccccc1C(=O)O (stereo not shown) [Compound 14, 4′-5′ Di nitroflorescein] | 21.5 | 8.75 µM | 5.69 | 8.87 | strong ATPase inhibition | 11.7 | 869 | IC50 ([2]; IC50_1, assay started by addition of KCl, determination 1): 7.81 µM; IC50 ([2]; IC50_2, assay started by addition of KCl, determination 2): 9.53 µM; IC50 ([2]; IC50_aver., assay started by addition of KCl, average): 8.69 µM
Cc1cc(O)c2c(c1)C(=O)c1cc(O)cc(O)c1C2=O [Compound 15, Emodin] | 220 | 89.8 µM | 32.2 | 75.5 |  | 162 |  | 
CC(CCc1ccc(O)cc1)NCCc1ccc(O)c(O)c1 (stereo not shown) [Compound 25, R—S Dobutamine] | 173 | 70.6 µM | 64.4 | 76.8 |  |  |  | 
COc1cccc2c1Sc1ccccc1C(=O)C2 [Compound 27] | 497 | 203 µM | 386 | 102 |  | 120 |  | 
COc1cc2c(c(OC)c1)Sc1ccccc1C(=O)C2 [Compound 28] |  | 359 µM and 38.1 µM |  | 42.5 | strong ATPase inhibition | 36.3 | 6764 | IC50 ([1]; determination 4, read-out: IC50_4): 145 µM; IC50 [2, 11]: 67.6 µM; IC50 [2, 12]: 75.6 µM; IC50 [2, 13]: 59.7 µM
C[C@@H]1O[C@@H](O[C@H]2C[C@@H](O)[C@]3(CO)[C@H]4[C@H](O)C[C@]5(C)[C@@H](C6=CC(=O)OC6)CC[C@]5(O)[C@@H]4CC[C@]3(O)C2)[C@H](O)[C@H](O)[C@H]1O [ouabain] |  |  |  |  |  |  |  | sensitivity to ouabain inhibition (in words) ([3]; rat subunit): insensitive; loss in ouabain inhibition ([3]; rat α1-subunit): ~1000 fold; sensitivity to ouabain (in words) [4]: sensitive; decrease in sensitivity to ouabain [5]: 1000 fold; less sensitive to ouabain than wild-type [6]: 1150 fold
Lacmoid [Compound 19] | 32.9 | 13.4 µM | 11.2 | 192 | strong ATPase inhibition | 9.7 | 340 | IC50 [2, 11]: 3.4 µM; IC50 [2, 12]: 3.55 µM; IC50 [2, 13]: 3.25 µM
